Laboratory results as given in ChEMBL document CHEMBL3044635, “Effect of propiconazole and difenoconazole on the control of anthracnose of chilli fruits caused by Colletotrichum capsici” (Crop Prot, 2006).

Legend:
Assay type in all cases: functional
Colletotrichum truncatum [1] = test: Fungicidal activity against Colletotrichum capsici assessed as reduction of pectin trans-eliminase production at 1 ug/ml incubated for 10 days measured up to 120 min by Ostwald-Fenske viscometric analysis (reference value: 38.5%); set-up: scale not given: the % may be the effect or the level left
Colletotrichum truncatum [2] = test: Fungicidal activity against Colletotrichum capsici assessed as reduction of polygalacturonase production at 1 ug/ml incubated for 10 days measured up to 120 min by Ostwald-Fenske viscometric analysis (reference value: 45.3%); set-up: scale not given: the % may be the effect or the level left
Colletotrichum truncatum [3] = test: Fungicidal activity against Colletotrichum capsici assessed as sporulation at 50 ug/ml incubated 16 hr photoperiod for 20 days by haemocytometer (reference value: 0.081 x 10^6 ml'-1)
Colletotrichum truncatum [4] = test: Fungicidal activity against Colletotrichum capsici assessed as sporulation at 25 ug/ml incubated 16 hr photoperiod for 20 days by haemocytometer (reference value: 0.081 x 10^6 ml'-1)
Colletotrichum truncatum [5] = test: Fungicidal activity against Colletotrichum capsici assessed as sporulation at 5 ug/ml incubated 16 hr photoperiod for 20 days by haemocytometer (reference value: 0.081 x 10^6 ml'-1)
Colletotrichum truncatum [6] = test: Fungicidal activity against Colletotrichum capsici assessed as sporulation at 1 ug/ml incubated 16 hr photoperiod for 20 days by haemocytometer (reference value: 0.081 x 10^6 ml'-1)
Colletotrichum truncatum [7] = test: Fungicidal activity against Colletotrichum capsici assessed as sporulation at 0.5 ug/ml incubated 16 hr photoperiod for 20 days by haemocytometer (reference value: 0.081 x 10^6 ml'-1)
Colletotrichum truncatum [8] = test: Fungicidal activity against Colletotrichum capsici assessed as sporulation at 0.1 ug/ml incubated 16 hr photoperiod for 20 days by haemocytometer (reference value: 0.081 x 10^6 ml'-1)
Colletotrichum truncatum [9] = test: Fungicidal activity against Colletotrichum capsici assessed as spore germination at 50 ug/ml after 48 to 96 hr (reference value: 70.2 CFU)
Colletotrichum truncatum [10] = test: Fungicidal activity against Colletotrichum capsici assessed as spore germination at 10 ug/ml after 48 to 96 hr (reference value: 70.2 CFU)
Colletotrichum truncatum [11] = test: Fungicidal activity against Colletotrichum capsici assessed as spore germination at 25 ug/ml after 48 to 96 hr (reference value: 70.2 CFU)
Colletotrichum truncatum [12] = test: Fungicidal activity against Colletotrichum capsici assessed as spore germination at 1 ug/ml after 48 to 96 hr (reference value: 70.2 CFU)
Colletotrichum truncatum [13] = test: Fungicidal activity against Colletotrichum capsici assessed as spore germination at 0.5 ug/ml after 48 to 96 hr (reference value: 70.2 CFU)
Colletotrichum truncatum [14] = test: Fungicidal activity against Colletotrichum capsici assessed as mycelial biomass at 25 ug/ml incubated 16 hr photoperiod for 20 days (reference value: 675 mg)
Colletotrichum truncatum [15] = test: Fungicidal activity against Colletotrichum capsici assessed as mycelial biomass at 10 ug/ml incubated 16 hr photoperiod for 20 days (reference value: 675 mg)
Colletotrichum truncatum [16] = test: Fungicidal activity against Colletotrichum capsici assessed as mycelial biomass at 5 ug/ml incubated 16 hr photoperiod for 20 days (reference value: 675 mg)
Colletotrichum truncatum [17] = test: Fungicidal activity against Colletotrichum capsici assessed as linear growth at 25 ug/ml incubated 16 hr photoperiod for 20 days (reference value: 90 mm)
Colletotrichum truncatum [18] = test: Fungicidal activity against Colletotrichum capsici assessed as linear growth at 5 ug/ml incubated 16 hr photoperiod for 20 days (reference value: 90 mm)
Colletotrichum truncatum [19] = test: Fungicidal activity against Colletotrichum capsici assessed as linear growth at 10 ug/ml incubated 16 hr photoperiod for 20 days (reference value: 90 mm)
Colletotrichum truncatum [20] = test: Fungicidal activity against Colletotrichum capsici assessed as linear growth at 1 ug/ml incubated 16 hr photoperiod for 20 days (reference value: 90 mm)
Colletotrichum truncatum [21] = test: Fungicidal activity against Colletotrichum capsici assessed as linear growth at 0.5 ug/ml incubated 16 hr photoperiod for 20 days (reference value: 90 mm)
Colletotrichum truncatum [22] = test: Fungicidal activity against Colletotrichum capsici assessed as linear growth at 0.1 ug/ml incubated 16 hr photoperiod for 20 days (reference value: 90 mm)
Colletotrichum truncatum [23] = test: Fungicidal activity against Colletotrichum capsici infected chilli plant assessed as fruit length at 0.025% applied as spray on day 10 post inoculation and twice every 20 days measured on day 155 post sowing in green house conditions (reference value: 6.8 to 7 cm)
Colletotrichum truncatum [24] = test: Fungicidal activity against Colletotrichum capsici infected chilli plant assessed as fruit length at 0.05% applied as spray on day 10 post inoculation and twice every 20 days measured on day 155 post sowing in green house conditions (reference value: 6.8 to 7 cm)
Colletotrichum truncatum [25] = test: Fungicidal activity against Colletotrichum capsici infected chilli plant assessed as fruit mass measured per pot at 0.025% applied as spray on day 10 post inoculation and twice every 20 days measured on day 155 post sowing in green house conditions (reference value: 85.3 to 94.5 g)
Colletotrichum truncatum [26] = test: Fungicidal activity against Colletotrichum capsici infected chilli plant assessed as fruit mass measured per pot at 0.05% applied as spray on day 10 post inoculation and twice every 20 days measured on day 155 post sowing in green house conditions (reference value: 85.3 to 94.5 g)
Colletotrichum truncatum [27] = test: Fungicidal activity against Colletotrichum capsici infected chilli plant assessed as percent disease index at 0.025% applied as spray on day 10 post inoculation and twice every 20 days measured on day 155 post sowing in green house conditions (reference value: 62.5 to 68.6%)
Colletotrichum truncatum [28] = test: Fungicidal activity against Colletotrichum capsici infected chilli plant assessed as percent disease index at 0.05% applied as spray on day 10 post inoculation and twice every 20 days measured on day 155 post sowing in green house conditions (reference value: 62.5 to 68.6%)
Colletotrichum truncatum [29] = test: Fungicidal activity against Colletotrichum capsici infected chilli plant assessed as fruit length measured per plot at 0.025% applied as spray on day 10 post inoculation and twice every 20 days measured on day 155 post sowing in field conditions (reference value: 8 to 8.7 cm)
Colletotrichum truncatum [30] = test: Fungicidal activity against Colletotrichum capsici infected chilli plant assessed as fruit length measured per plot at 0.05% applied as spray on day 10 post inoculation and twice every 20 days measured on day 155 post sowing in field conditions (reference value: 8 to 8.7 cm)
Colletotrichum truncatum [31] = test: Fungicidal activity against Colletotrichum capsici infected chilli plant assessed as fruit yield measured per plot at 0.05% applied as spray on day 10 post inoculation and twice every 20 days measured on day 155 post sowing in field conditions (reference value: 8.25 to 9.3 kg)
Colletotrichum truncatum [32] = test: Fungicidal activity against Colletotrichum capsici infected chilli plant assessed as percent disease index at 0.025% applied as spray on day 10 post inoculation and twice every 20 days measured on day 155 post sowing in field conditions (reference value: 51 to 56.5%)
Colletotrichum truncatum [33] = test: Fungicidal activity against Colletotrichum capsici infected chilli plant assessed as percent disease index at 0.05% applied as spray on day 10 post inoculation and twice every 20 days measured on day 155 post sowing in field conditions (reference value: 51 to 56.5%)

For `CC1COC(Cn2cncn2)(c2ccc(Oc3ccc(Cl)cc3)cc2Cl)O1` (stereo unspecified) [DIFENOCONAZOLE], the Activity (Colletotrichum truncatum [1]) was 15.6%, the Activity (Colletotrichum truncatum [2]) was 12% and the Activity (Colletotrichum truncatum [3]) was 0 ×10⁶ /ml. It also gave an Activity (Colletotrichum truncatum [4]) of 0 ×10⁶ /ml, an Activity (Colletotrichum truncatum [5]) of 0.37 ×10⁶ /ml and an Activity (Colletotrichum truncatum [6]) of 1.02 ×10⁶ /ml. It also gave an Activity (Colletotrichum truncatum [7]) of 2.25 ×10⁶ /ml, an Activity (Colletotrichum truncatum [8]) of 3.25 ×10⁶ /ml and a CFU (Colletotrichum truncatum [9]) of 0. The CFU (Colletotrichum truncatum [10]) was 0, the CFU (Colletotrichum truncatum [11]) was 0 and the CFU (Colletotrichum truncatum [12]) was 7.8. For the same molecule, the CFU (Colletotrichum truncatum [13]) was 22.4, the Activity (Colletotrichum truncatum [14]) was 0 mg and the Activity (Colletotrichum truncatum [15]) was 47 mg. For the same molecule, the Activity (Colletotrichum truncatum [16]) was 118 mg, the Activity (Colletotrichum truncatum [17]) was 9 mm and the Activity (Colletotrichum truncatum [18]) was 27.4 mm. It also gave an Activity (Colletotrichum truncatum [19]) of 18.5 mm, an Activity (Colletotrichum truncatum [20]) of 39.3 mm and an Activity (Colletotrichum truncatum [21]) of 48.5 mm. For the same molecule, the Activity (Colletotrichum truncatum [22]) was 73.5 mm, the Activity (Colletotrichum truncatum [23]) was 7 cm and the Activity (Colletotrichum truncatum [24]) was 7.5 cm. For the same molecule, the Crop_yield (Colletotrichum truncatum [25]) was 100.6 g, the Crop_yield (Colletotrichum truncatum [26]) was 140.5 g and the PDI (Colletotrichum truncatum [27]) was 34.5%. It also gave a PDI (Colletotrichum truncatum [28]) of 22.2%, an Activity (Colletotrichum truncatum [29]) of 8.2 cm and an Activity (Colletotrichum truncatum [30]) of 9.2 cm. It also gave a Crop_yield (Colletotrichum truncatum [31]) of 12.34 kg, a PDI (Colletotrichum truncatum [32]) of 33% and a PDI (Colletotrichum truncatum [33]) of 22%.
Work on `CCCC1COC(Cn2cncn2)(c2ccc(Cl)cc2Cl)O1` (stereo unspecified) [PROPICONAZOLE] yielded an Activity (Colletotrichum truncatum [1]) of 12%, an Activity (Colletotrichum truncatum [2]) of 9.2% and an Activity (Colletotrichum truncatum [3]) of 0 ×10⁶ /ml. For the same molecule, the Activity (Colletotrichum truncatum [4]) was 0 ×10⁶ /ml, the Activity (Colletotrichum truncatum [5]) was 0 ×10⁶ /ml and the Activity (Colletotrichum truncatum [6]) was 0.33 ×10⁶ /ml. It also gave an Activity (Colletotrichum truncatum [7]) of 1.3 ×10⁶ /ml, an Activity (Colletotrichum truncatum [8]) of 2.83 ×10⁶ /ml and a CFU (Colletotrichum truncatum [9]) of 0. The CFU (Colletotrichum truncatum [10]) was 0, the CFU (Colletotrichum truncatum [11]) was 0 and the CFU (Colletotrichum truncatum [12]) was 3.3. The CFU (Colletotrichum truncatum [13]) was 15.5, the Activity (Colletotrichum truncatum [14]) was 0 mg and the Activity (Colletotrichum truncatum [15]) was 0 mg. It also gave an Activity (Colletotrichum truncatum [16]) of 53 mg, an Activity (Colletotrichum truncatum [17]) of 9 mm and an Activity (Colletotrichum truncatum [18]) of 12.61 mm. The Activity (Colletotrichum truncatum [19]) was 9 mm, the Activity (Colletotrichum truncatum [20]) was 20.5 mm and the Activity (Colletotrichum truncatum [21]) was 39.2 mm. It also gave an Activity (Colletotrichum truncatum [22]) of 55.3 mm, an Activity (Colletotrichum truncatum [23]) of 7.1 cm and an Activity (Colletotrichum truncatum [24]) of 7.8 cm. For the same molecule, the Crop_yield (Colletotrichum truncatum [25]) was 112.8 g, the Crop_yield (Colletotrichum truncatum [26]) was 130 g and the PDI (Colletotrichum truncatum [27]) was 33%. It also gave a PDI (Colletotrichum truncatum [28]) of 25.7%, an Activity (Colletotrichum truncatum [29]) of 8.5 cm and an Activity (Colletotrichum truncatum [30]) of 9.2 cm. For the same molecule, the Crop_yield (Colletotrichum truncatum [31]) was 13.1 kg, the PDI (Colletotrichum truncatum [32]) was 30.6% and the PDI (Colletotrichum truncatum [33]) was 20.5%.
